From PubChem BioAssay (NCI)
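Assay format: 96-well plates, 48-hour exposure. GI50 is the concentration that inhibits growth by half. The concentration for full growth arrest is given as TGI.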

What was measured:
Test in all cases: NCI tumour cell line growth inhibition, 48 h
[1] = system: BT-549 breast
[2] = system: DU-145 prostate
[3] = system: EKVX NSCLC
[4] = system: HOP-92 NSCLC
[5] = system: KM12 colon
[6] = system: MALME-3M melanoma
[7] = system: NCI-H226 lung
[8] = system: NCI-H23 lung
[9] = system: RPMI-8226 leukemia
[10] = system: SN12C renal

| Structure (SMILES) | TGI [1] | TGI [2] | TGI [3] | TGI [4] | TGI [5] | TGI [6] | TGI [7] | TGI [8] | TGI [9] | TGI [10] | GI50 [1] | GI50 [2] | GI50 [3] | GI50 [4] | GI50 [5] | GI50 [6] | GI50 [7] | GI50 [8] | GI50 [9] | GI50 [10] |
| --- | --- | --- | --- | --- | --- | --- | --- | --- | --- | --- | --- | --- | --- | --- | --- | --- | --- | --- | --- | --- |
| O=[N+]([O-])c1ccc2c(Nc3ccccc3-c3ccccc3Nc3c4ccccc4nc4cc([N+](=O)[O-])ccc34)c3ccccc3nc2c1 | 7.74 µM | 35.2 µM | 43 µM | 24.4 µM | 36.9 µM | 50.2 µM | 32.4 µM | 34.7 µM | > 39.9 µM | 58.1 µM |  |  |  |  |  |  |  |  |  |  |
| O=C(O)COc1ccc(C(=O)/C(SS/C(C(=O)c2ccc(OCC(=O)O)c(Cl)c2Cl)=C2\C=C(c3ccc(Br)cc3)SS2)=C2/C=C(c3ccc(Br)cc3)SS2)c(Cl)c1Cl | 67.3 µM | > 100 µM | > 100 µM | 16 µM | 28.4 µM | 41.9 µM | 42.1 µM | 21.3 µM | 18.2 µM | > 100 µM |  |  |  |  |  |  |  |  |  |  |
| COc1cccc(CC(C)=C(c2ccc(OCCCN(C)C)cc2)c2ccc(OCCCN(C)C)cc2)c1 | 6.42 µM | 1.82 µM | 5.17 µM | 3.79 µM | 1.54 µM | 0.774 µM | 6.95 µM | 6.31 µM | 1.29 µM | 1.22 µM | 3090 nM | 694 nM | 1640 nM | 747 nM | 628 nM | 403 nM | 2840 nM | 2870 nM | 550 nM | 533 nM |
| COc1ccc(Oc2ccccc2NC(=O)CNC(=O)c2cccc3ccccc23)cc1 | > 25 µM | > 25 µM | > 25 µM | > 25 µM | > 25 µM | > 25 µM | > 25 µM | > 25 µM | 8.45 µM | > 25 µM | 1120 nM | 1020 nM | 1370 nM | > 25000 nM | 577 nM | > 25000 nM | 4300 nM | 1280 nM | 1130 nM | 2300 nM |
| COc1cc(/C=C/[N+](=O)[O-])cc(OC)c1OC | 4.57 µM | 6.31 µM | 28.4 µM | 6.52 µM | 12.3 µM | 6.06 µM | 5.5 µM | 6.44 µM | 8.59 µM | 9.26 µM | 2190 nM | 2690 nM | 13600 nM | 2250 nM | 3680 nM | 2290 nM | 2100 nM | 2410 nM | 3140 nM | 2510 nM |
